From a melting point compilation (Tetko et al.; mined from patent text by program, amines drawn as free bases though some values may be those of a salt)

SMILES | melting point [°C]
CN1CCN(c2cc(Cl)cc3c2c(=O)n(Cc2ccc(O)cc2)c(=O)n3Cc2ccccc2)CC1 | 138 to 140
COc1ccc(-c2ccncc2)c(C)n1 | 85 to 90
COc1ccc(-c2cc3cc(F)c(F)cc3[nH]2)cc1NS(=O)(=O)c1cccc([N+](=O)[O-])c1 | 228 to 230
CCOC(=O)c1csc(-c2ccccc2[N+](=O)[O-])n1 | 82 to 84
O=C(OO)c1ccc([N+](=O)[O-])cc1 | 251 to 252
COc1ccc(-c2cc(=O)[nH]nc2C)cc1 | 255 to 256
O=C1N(C(c2ccccc2)c2ccccc2)c2ccccc2C1(O)c1cc2c(cc1O)OCCC2 (configuration not stated) | 204 to 206
Cc1cc(F)ccc1-c1cc(N2CCSCC2)ncc1N(C)C(=O)C(C)(C)c1cc(C(F)(F)F)cc(C(F)(F)F)c1 | 168 to 170
COc1cc(Oc2ccc(S(C)(=O)=O)nc2)cc2cc(C3=NCC(CC(=O)NC4CC4)S3)[nH]c12 (configuration not stated) | 248 to 249
O=C(c1ccc(F)cc1)C1(c2ccccc2)CCN(Cc2ccccc2)CC1 | 148
NC1=NC(c2cccc(-c3cccnc3F)c2)C2=NC(c3ccc(OC(F)F)cc3)C3(CCC3)CN12 (configuration not stated) | 220 to 226
O=c1oc2cc(Oc3nnnn3-c3ccccc3)ccc2c2c1CN(Cc1ccccc1)CC2 | 165 to 166
COc1ccc(C2CC3(C)C(=O)CCC3C3CCC4=CC(=O)CCC4C23)cc1 (configuration not stated) | 155 to 156
COc1ccc(-c2nsc(C(=O)O)c2C(=O)O)cc1OC | 190 to 192
OC1(c2nccnc2Cl)CN2CCC1CC2 (configuration not stated) | 215 to 216
Cc1cccc(C)c1N1CCN(c2c(C)cccc2C)C1=N | 188 to 190
CC(C)(C)C(NC(=O)c1ccc(F)cc1)NC(=NC#N)Nc1cccnc1 (configuration not stated) | 195 to 196
CCOC(=O)[C@H](CCC1CCCCC1)N[C@@H]1COc2ccccc2N(Cc2ccc(C(C)C)cc2)C1=O | 80
CCOc1ccc(-c2nc(-c3cccc(N4CCCC4C(=O)O)n3)cs2)cc1OCC (configuration not stated) | 170 to 171
O=C1c2ccccc2C(=O)N1C(Cc1ccccc1)C[PH](=O)O (configuration not stated) | 127 to 130
COc1cc(C#Cc2ccccc2)c(OC)cc1C#Cc1ccccc1 | 172 to 174
CN1CC(COC2c3ccccc3CCn3cc(I)nc32)C1 (configuration not stated) | 100
OCc1cnoc1-c1cc(Cl)ccc1Cl | 51 to 52
CCCc1nc(Cl)c(C=O)n1Cc1ccc(-c2ccccc2-c2nnn[nH]2)cc1 | 165 to 167

The remaining lines, values ahead:

melting point [°C] | SMILES
119 to 120 | COc1ccc(-c2cc(=O)n(Cc3ccc(Cl)cc3Cl)nc2-c2ccc(OC)c(OC)c2)cc1
41 to 42 | COc1cc(N)c2nccc(C)c2c1OCCCCCc1ccco1
185 | CCc1ccc2c(c1)C=Cc1cc(C)ccc1C2c1cn(-c2ccnc(N3CCCC3C(=O)O)n2)c(=O)[nH]c1=O (configuration not stated)
216 | CS(=O)(=O)Nc1ccc(-c2ccc(C(=O)NCCCCN3CCC(c4ccc5c(c4OCCO)CCCC5)CC3)cc2)cc1
76 | CCCOCCOC(=O)C1=C(C)NN=C(CC)C1c1cccc([N+](=O)[O-])c1 (configuration not stated)
150 to 152 | CC1(C)OC(=O)C(Oc2ccc(Br)cc2)=C1c1ccc(S(C)(=O)=O)cc1
76 to 78 | CCC(=O)SCC(CC(=O)c1ccccc1)C(=O)O (configuration not stated)
112 | CCOP(=O)(OCC)C1CNc2ccc(C(F)(F)F)cc2C1 (configuration not stated)
141 | OCc1cccc(/C=C/c2ccc3ccc(Cl)cc3n2)c1
283 to 284 | COc1cc2[nH]cc(-c3cc4c(Cl)c(F)cnc4[nH]3)c2nc1OC
191 to 192 | N#Cc1cc(Cl)ccc1N1CCN(Cc2cn3cc(Cl)ccc3n2)CC1
155 to 159 | Cc1c(C(F)(F)F)nc(C(F)(F)F)c(C(=O)O)c1O
246 to 248 | CNc1nc(-c2cccc(Br)c2)c2cc(OC)c(OC)cc2n1
